Experimental findings from patent US6583171B1, “Antineoplastic agents” (Welichem Biotech Inc., priority 1996, dated 2003) are described below.

Like-named read-outs stand apart in the source and are kept apart here.

In one series the test system is Breast Cancer (LCC6). Nature of the series: Anticancer activity of xenorxide derivatives (Example 8), LCC6. Type of series: cell-based. The following applies: Homo sapiens, LCC-6; LCC6 breast cancer cells. From the text: (§1) Anticancer Activity of Xenorxide Derivatives Against Human Lung Cancer (H460) and Breast Cancer (LCC6)
A further series deals with Human Lung Cancer (H460). Nature of the series: Anticancer activity of xenorxide derivatives (Example 8), H460. The following applies: NCI-H460; H460 human lung cancer cells. Type of series: cell-based.
Excerpt: as §1

The next series concerns HT29. Nature of the series: NCI sulforhodamine B (SRB) anticancer assay, HT29. Type of series: cell-based. An excerpt: (§2) The method normally used by the American National Cancer Institute (NCI) for the effectiveness of a compound is based on the LC50. The LC50 is the compound concentration at which half of the cancer cell population is killed. The assay is commonly used by those skilled in the art and are accepted as indicative of anticancer activity in mammals. The test animal cancer cells are available from ATCC, NCI and other organizations. The anticancer activities of compounds of the present invention have been determined in cell cultures of various human cancer cells (see table below) using the standard NCI method with slight modifications. The specifications of the procedure was described by Skehan et al. (1990). Briefly, cancer cells were grown in RPMI-1640 medium with glutamine and 10% fetal calf serum, and were harvested from exponential-phase maintenance cultures. The harvested cells were counted and dispensed into replicate 96-well culture plates in 180 μl volumes for each well with a cell density of up to 2,500 cells/well. The cells were allowed to settle for about 4 hours at 37° C. Then 20 μl of medium containing the test compound was added into each well, resulting in a suitable final test compound concentration. The test plates were then incubated at 37° C. The test was terminated after incubation by adding to each well 50 1 of cold 50% trichloroacetic acid. The cells were fixed for an hour at 4° C. and then washed five times with tap water. The washed plates were air-dried and stained for 30 minutes with 0.4% (wt/vol) sulforhodamine B (SRB) which was dissolved in 1% acetic acid. At the end of the staining period, the SRB was removed and plates were quickly rinsed five times with 1% acetic acid. After being rinsed, the plates were air-dried and 100 μl of 10 mM tris base (pH 10.5) were added to each well to dissolve the dye bound to the cells. The plates were placed on a gyratory shaker and shaken (100 rpm) for 10 minutes. Finally, the plates were read in a microtiter plate reader at 570 nm.
A general note: In SRB staining, fixed cells bind dye roughly in proportion to their protein.

The subject of the next series is MCF-7. Nature of the series: NCI sulforhodamine B (SRB) anticancer assay, MCF-7. The format is cell-based.
Excerpt: as §2

The next series deals with Hela. Nature of the series: NCI sulforhodamine B (SRB) anticancer assay, Hela. The format is cell-based.
Excerpt: as §2

A further series concerns DU-145 (Prostate cancer). The experiment in a line: NCI sulforhodamine B (SRB) anticancer assay, DU-145. The note with it: DU-145 (Prostate cancer) cells, read-out: LC50 (the source's name). The format is cell-based.
Excerpt: as §2

The subject of the next series is Sk-Mel-28. Nature of the series: NCI sulforhodamine B (SRB) anticancer assay, Sk-Mel-28. The note with it: Sk-Mel-28 cells, read-out: LC50 (the source's name). Type of series: cell-based.
Excerpt: as §2

The next series has as its system SF-295 (CNS cancer). The experiment in a line: NCI sulforhodamine B (SRB) anticancer assay, SF-295. Type of series: cell-based. The note with it: SF-295 (CNS cancer) cells, read-out: LC50 (the source's name).
Excerpt: as §2

The test system of the next series is NCI-H460. The experiment in a line: NCI sulforhodamine B (SRB) anticancer assay, NCI-H460. Type of series: cell-based. The note with it: NCI-H460 cells, read-out: LC50 (the source's name).
Excerpt: as §2

For a further series, the system named is UO-31 (Renal cancer). The experiment in a line: NCI sulforhodamine B (SRB) anticancer assay, UO-31. Type of series: cell-based. The note with it: UO-31 (Renal cancer) cells, read-out: LC50 (the source's name).
Excerpt: as §2

For a further series, the system named is LNCap. Nature of the series: NCI sulforhodamine B (SRB) anticancer assay, LNCap. The format is cell-based, human. The following applies: LNCap cells; read-out: LC50 (the source's name).
Excerpt: as §2, with “The test was terminated after incubation by adding to each well 50 1 of cold 50% trichloroacetic acid. The cells were fixed for an hour at 4° C. and then washed five times with tap water. The washed plates were air-dried and stained for 30 minutes with 0.4% (wt/vol) sulforhodamine B (SRB) which was dissolved in 1% acetic acid. At the end of the staining period, the SRB was removed and plates were quickly rinsed five times with 1% acetic acid. After being rinsed, the plates were air-dried and 100 μl of 10 mM tris base (pH 10.5) were added to each well to dissolve the dye bound to the cells. The plates were placed on a gyratory shaker and shaken (100 rpm) for 10 minutes.” left out

The subject of the next series is P388. Nature of the series: NCI sulforhodamine B (SRB) anticancer assay, P388. The format is cell-based. The following applies: P388 cells; read-out: LC50 (the source's name).
Excerpt: as §2, with “The test was terminated after incubation by adding to each well 50 1 of cold 50% trichloroacetic acid. The cells were fixed for an hour at 4° C. and then washed five times with tap water. The washed plates were air-dried and stained for 30 minutes with 0.4% (wt/vol) sulforhodamine B (SRB) which was dissolved in 1% acetic acid. At the end of the staining period, the SRB was removed and plates were quickly rinsed five times with 1% acetic acid. After being rinsed, the plates were air-dried and 100 μl of 10 mM tris base (pH 10.5) were added to each well to dissolve the dye bound to the cells. The plates were placed on a gyratory shaker and shaken (100 rpm) for 10 minutes.” left out

Setting [1] is: HT29 cells, concentration at which half of the cancer cell population is killed, read-out: LC50 (the source's name).
The mark [2] stands for this setting: MCF-7 cells, read-out: LC50 (the source's name).
[3] abbreviates: Hela cells, read-out: LC50 (the source's name).

Usually IC50 stands for the point on the concentration scale where inhibition reaches its midpoint. A low value points to greater potency in that assay. Consider `COc1ccc(N2C(=O)C(NC(=O)C(F)(F)F)=C3C2=CSS3(=O)=O)cc1` [BLI-041-1], for which the IC50 in the series on Breast Cancer (LCC6) amounted to 6380 nM; in the series on Human Lung Cancer (H460), 2130 nM.
In the same order, the values of `COc1ccc(N2C(=O)C(NC(C)=O)=C3C2=CSS3(=O)=O)cc1` [BLI-042-1] are 1630 nM and 230 nM.
Take `O=C(NC1=C2C(=CSS2(=O)=O)N(Cc2ccccc2)C1=O)c1ccccc1` [CSL-29]: the IC50 was 1970 nM in the series on Breast Cancer (LCC6) and 1980 nM in the series on Human Lung Cancer (H460).
Taken in the same sequence, the figures for `CC(=O)NC1=C2C(=CSS2(=O)=O)N(c2ccccc2)C1=O` [CSL-30] were 670 nM and 560 nM.
`CCCCCC(=O)Nc1c2[s+]([O-])scc-2n(C)c1=O` (stereo not drawn) [XM1]: the CC50 in the series with HT29 (setting [1]) is 470 nM; with MCF-7 (setting [2]), 470 nM; with Hela (setting [3]) it was 800 nM.
Turning to `CC(C)CCCC(=O)Nc1c2[s+]([O-])scc-2n(C)c1=O` (stereo not drawn) [XM2], the CC50 is 110 nM in the series with HT29 (setting [1]), 550 nM in the series on MCF-7 (setting [2]) and 210 nM in the series with Hela (setting [3]).
As for `CC(=O)Nc1c2sscc-2n(C)c1=O` [XN0, 6-(Acetamido)-4-methyl-4,5dihydro-1.2-dithiolo[4,3-b]pyrrol-5-one], the CC50 came to 130 nM in the series with HT29 (Homo sapiens, HT-29, read-out: LC50); 350 nM with MCF-7 (Homo sapiens, MCF7, read-out: LC50); 310 nM in the series with Hela (Homo sapiens, HeLa, read-out: LC50).
For the molecule `CCCCCC(=O)Nc1c2sscc-2n(C)c1=O` [XN1, 6-(Hexanamido)-4-methyl-4,5-dihydro-1.2-dithiolo[4,3-b]pyrrol-5-one], the CC50 with HT29 (setting [1]) is 110 nM; in the series on MCF-7 (setting [2]), 560 nM; in the series with Hela (setting [3]) it was 460 nM.
Regarding `CC(C)CCCC(=O)Nc1c2sscc-2[nH]c1=O` [XN3, 6(5′-Methylhexanamido)-4,5-dihydro1,2-dithiolo[4,3-b]pyrrol-5one], the CC50 with HT29 (Homo sapiens, HT-29, HT29 cells, concentration at which half of the cancer cell population is killed, read-out: LC50 (the source's name)) turned out to be 110 nM; in the series with DU-145 (Prostate cancer) (Homo sapiens) it was 140 nM; in the series with MCF-7 (Homo sapiens, MCF7, MCF-7 cells, read-out: LC50 (the source's name)), 390 nM; in the series with Sk-Mel-28 (Homo sapiens), 240 nM; in the series with SF-295 (CNS cancer) (Homo sapiens), 40 nM; in the series on NCI-H460 (Homo sapiens), 30 nM. The CC50 amounted to 180 nM in the series with UO-31 (Renal cancer) (Homo sapiens) and 320 nM with Hela (Homo sapiens, Hela cells, read-out: LC50 (the source's name)).
For `CCCCCC(=O)NC1=C2C(=CSS2(=O)=O)N(C)C1=O` [XO1], the CC50 in the series on HT29 (setting [1]) worked out at 220 nM; in the series on DU-145 (Prostate cancer) it was 1800 nM; in the series on MCF-7 (setting [2]), 890 nM; in the series with Sk-Mel-28 it was 190 nM; in the series with SF-295 (CNS cancer), 1580 nM; in the series on NCI-H460, 280 nM. The CC50 in the series with LNCap was 540 nM; with P388, 660 nM; in the series on UO-31 (Renal cancer) it was 1850 nM; with Hela (setting [3]) it was 160 nM.
In the case of `CC(C)CCCC(=O)NC1=C2C(=CSS2(=O)=O)N(C)C1=O` [XO2], the CC50 amounted to 850 nM with HT29 (setting [1]); 1600 nM in the series on DU-145 (Prostate cancer); 950 nM in the series with MCF-7 (setting [2]); 730 nM with Sk-Mel-28; 2120 nM in the series on SF-295 (CNS cancer); 220 nM in the series on NCI-H460. Also, the CC50 in the series with LNCap was 190 nM; in the series on P388, 280 nM; in the series on UO-31 (Renal cancer), 6000 nM; with Hela (setting [3]), 130 nM.
